Reference: patent US20020137929A1, “1 - (3-heterocyclylphenyl) isothiourea, -isourea, -guanidine and -amidine herbicidal agents” (Intellectual Property Department, BASF Aktiengesellschaft, priority 1998, published 2002)

Experiments:
[1] = system: AMBEL (Ragweed, Common); assay: Postemergence herbicidal evaluation; type: in vivo, Ambrosia artemisifolia; settings: postemergence
Summary of the method: (§1)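 Scores (0–9) reflect plant stand, vigor, malformation, size, chlorosis and general appearance relative to control, read 4 to 5 weeks after treatment and averaged where tests were repeated. Application: about 0.0156–0.500 kg/ha sprayed at 40 psi onto two-week seedlings.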

[2] = system: CHEAL (Lambsquarters, Common); assay: Postemergence herbicidal evaluation; type: in vivo, Chenopodium album; settings: postemergence
Summary of the method: as §1

[3] = system: CHEAL (Lambsquarters, Common); assay: Preemergence herbicidal evaluation; type: in vivo, Chenopodium album; settings: preemergence, rated 4-5 weeks after treatment, 0-9 scale
Summary of the method: (§2)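 Scores (0–9) reflect visual comparison with control plants for stand, vigor, malformation, size and chlorosis. Compound was applied to the soil after sowing, before emergence, as an aqueous acetone spray (about 0.0156–0.500 kg/ha), and cups were kept in a greenhouse for 4–5 weeks.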

[4] = system: ABUTH (Velvetleaf); assay: Postemergence herbicidal evaluation; type: in vivo, Abutilon theophrasti; settings: postemergence
Summary of the method: as §1

[5] = system: CASOB (Sicklepod); assay: Preemergence herbicidal evaluation; type: in vivo, Cassia obtusifolia; settings: preemergence, rated 4-5 weeks after treatment, 0-9 scale
Summary of the method: as §2

[6] = system: CYPIR (Rice Flatsedge); assay: Postemergence weed control under flooded paddy conditions; type: in vivo, Cyperus iria; settings: postemergence weeds, rated 3 to 4 weeks after treatment
Summary of the method: (§3)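 With weeds 3 to 5 cm tall and rice at the 1.5 to 2.5 leaf stage, containers were flooded and water held 1.5 to 3 cm above soil. Compounds in 50/50 v/v aqueous/acetone went into the flood water at about 0.0313 to 0.500 kg/ha a.i. Effects were visually rated 0–9 against controls after three to four weeks in the greenhouse.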

[7] = system: CYPSE (Flatsedge); assay: as above; type: in vivo, Cyperus serotinus; settings: postemergence weeds, rated 3 to 4 weeks after treatment
Summary of the method: as §3

[8] = system: CYPSE (Flatsedge); assay: Preemergence weed control under flooded paddy conditions; type: in vivo, Cyperus serotinus; settings: rated 3-4 weeks after treatment
Summary of the method: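 Seeds or propagules sown in silt loam kept flooded 1.5-3 cm; compounds in 50/50 acetone/water pipetted into flood water at about 0.0313 to 0.500 kg/ha. Greenhouse; visual 0-9 rating versus untreated control 3-4 weeks after treatment.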

[9] = system: ECHCG (Barnyardgrass); assay: Postemergence herbicidal evaluation; type: in vivo, Echinochloa crus-galli; settings: postemergence
Summary of the method: as §1

[10] = system: GLXMAW (Soybean, Williams); assay: Postemergence herbicidal evaluation; type: in vivo, Glycine max, (L.) Merr. cv Williams; settings: postemergence
Summary of the method: as §1

[11] = system: AMBEL (Ragweed, Common); assay: Preemergence herbicidal evaluation; type: in vivo, Ambrosia artemisifolia; settings: preemergence, rated 4-5 weeks after treatment, 0-9 scale
Summary of the method: as §2

[12] = system: ORYSAT (Rice, Tebonnet); assay: Postemergence herbicidal evaluation; type: in vivo, Oryza sativa, (L.) Tebonnet; settings: postemergence
Summary of the method: as §1

[13] = system: GALAP (Galium); assay: Preemergence herbicidal evaluation; type: in vivo, Galium aparine; settings: preemergence, rated 4-5 weeks after treatment, 0-9 scale
Summary of the method: as §2

[14] = system: ZEAMX (Corn, Field); assay: Postemergence herbicidal evaluation; type: in vivo, Zea mays; settings: postemergence
Summary of the method: as §1

## CCS(=O)(=O)NC(=O)CC1SC(=Nc2cc(-n3c(=O)cc(C(F)(F)F)n(C)c3=O)c(F)cc2Cl)N(C)C1=O (stereo not drawn) [Compound 105, 2-{{2-Chloro-5-[3,6-dihydro-3-methyl-2,6-dioxo-4-(trifluoromethyl)-1(2H)-pyrimidinyl]-4-fluorophenyl}imino}-N-(ethylsulfonyl)-3-methyl-4-oxo-5-thiazolidineacetamide]
[1]; rate 0.0156 kg/ha
  herbicidal rating AMBEL: 0.0
[1]; rate 0.0313 kg/ha
  herbicidal rating AMBEL: 0.0
[1]; rate 0.0625 kg/ha
  herbicidal rating AMBEL: 3.0
[1]; rate 0.1250 kg/ha
  herbicidal rating AMBEL: 9.0
[2]; rate 0.0156 kg/ha
  herbicidal rating CHEAL: 0.0
[2]; rate 0.0313 kg/ha
  herbicidal rating CHEAL: 0.0
[2]; rate 0.0625 kg/ha
  herbicidal rating CHEAL: 2.0
[2]; rate 0.1250 kg/ha
  herbicidal rating CHEAL: 2.0
[3]; 0.1250 kg/ha
  CHEAL rating: 9.0
[3]; 0.2500 kg/ha
  CHEAL rating: 9.0
[3]; 0.5000 kg/ha
  CHEAL rating: 9.0
[4]; rate 0.0156 kg/ha
  herbicidal rating ABUTH: 4.0
[4]; rate 0.0313 kg/ha
  herbicidal rating ABUTH: 4.0
[4]; rate 0.0625 kg/ha
  herbicidal rating ABUTH: 4.0
[4]; rate 0.1250 kg/ha
  herbicidal rating ABUTH: 9.0
[5]; 0.1250 kg/ha
  CASOB rating: 0.0
[5]; 0.2500 kg/ha
  CASOB rating: 0.0
[5]; 0.5000 kg/ha
  CASOB rating: 0.0
[6]; Rate 0.0313 kg/ha
  Herbicidal rating CYPIR: 5.0
[6]; Rate 0.0625 kg/ha
  Herbicidal rating CYPIR: 7.0
[6]; Rate 0.1250 kg/ha
  Herbicidal rating CYPIR: 7.0
[6]; Rate 0.2500 kg/ha
  Herbicidal rating CYPIR: 9.0
[7]; Rate 0.0313 kg/ha
  Herbicidal rating CYPSE: 2.0
[7]; Rate 0.0625 kg/ha
  Herbicidal rating CYPSE: 5.0
[7]; Rate 0.1250 kg/ha
  Herbicidal rating CYPSE: 7.0
[7]; Rate 0.2500 kg/ha
  Herbicidal rating CYPSE: 9.0
[8]; 0.0313 kg/ha
  CYPSE herbicidal effect rating: 2.0
[8]; 0.0625 kg/ha
  CYPSE herbicidal effect rating: 5.0
[8]; 0.1250 kg/ha
  CYPSE herbicidal effect rating: 7.0
[8]; 0.2500 kg/ha
  CYPSE herbicidal effect rating: 9.0
[9]; rate 0.0156 kg/ha
  herbicidal rating ECHCG: 0.0
[9]; rate 0.0313 kg/ha
  herbicidal rating ECHCG: 0.0
[9]; rate 0.0625 kg/ha
  herbicidal rating ECHCG: 0.0
[9]; rate 0.1250 kg/ha
  herbicidal rating ECHCG: 3.0
[10]; rate 0.0156 kg/ha
  herbicidal rating GLXMAW: 3.0
[10]; rate 0.0313 kg/ha
  herbicidal rating GLXMAW: 4.5
[10]; rate 0.0625 kg/ha
  herbicidal rating GLXMAW: 6.5
[10]; rate 0.1250 kg/ha
  herbicidal rating GLXMAW: 7.5
[11]; 0.1250 kg/ha
  AMBEL rating: 1.0
[11]; 0.2500 kg/ha
  AMBEL rating: 3.0
[11]; 0.5000 kg/ha
  AMBEL rating: 4.0
[12]; rate 0.0156 kg/ha
  herbicidal rating ORYSAT: 0.0
[12]; rate 0.0313 kg/ha
  herbicidal rating ORYSAT: 0.0
[12]; rate 0.0625 kg/ha
  herbicidal rating ORYSAT: 0.0
[12]; rate 0.1250 kg/ha
  herbicidal rating ORYSAT: 2.0
[13]; 0.2500 kg/ha
  GALAP rating: 3.0
[13]; 0.5000 kg/ha
  GALAP rating: 7.0
[14]; rate 0.0156 kg/ha
  herbicidal rating ZEAMX: 3.5
[14]; rate 0.0313 kg/ha
  herbicidal rating ZEAMX: 5.0
[14]; rate 0.0625 kg/ha
  herbicidal rating ZEAMX: 6.0
[14]; rate 0.1250 kg/ha
  herbicidal rating ZEAMX: 7.0
